Assay results as given in patent publication US20100227859A1, “TRICYCLIC COMPOUNDS AS MATRIX METALLOPROTEINASE INHIBITORS” (priority 2007, published 2010).
pIC50: −log10 of the molar value.

These compounds were tested against purified human MMP-12 enzyme (Homo sapiens, UniProt P39900) (assay: MMP-12 FRET assay). Settings: substrate 20 μM, room temperature.
Type: biochemical
Outline: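 Initial fluorescence rate (325/395 nm) of cleavage of MCA-Pro-Leu-Gly-Leu-Dpa(DNP)-Ala-Arg, 20 μM final, was followed for 30 min at room temperature after a 30 min enzyme–compound preincubation. Buffer: 50 mM HEPES pH 7.4, 100 mM NaCl, 5 mM CaCl2, 0.005% Brij-35, with 10% final DMSO. IC50 came from a Hill-type fit of rate versus inhibitor concentration.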

Chain of purified human MMP-12 enzyme (P39900 106-470): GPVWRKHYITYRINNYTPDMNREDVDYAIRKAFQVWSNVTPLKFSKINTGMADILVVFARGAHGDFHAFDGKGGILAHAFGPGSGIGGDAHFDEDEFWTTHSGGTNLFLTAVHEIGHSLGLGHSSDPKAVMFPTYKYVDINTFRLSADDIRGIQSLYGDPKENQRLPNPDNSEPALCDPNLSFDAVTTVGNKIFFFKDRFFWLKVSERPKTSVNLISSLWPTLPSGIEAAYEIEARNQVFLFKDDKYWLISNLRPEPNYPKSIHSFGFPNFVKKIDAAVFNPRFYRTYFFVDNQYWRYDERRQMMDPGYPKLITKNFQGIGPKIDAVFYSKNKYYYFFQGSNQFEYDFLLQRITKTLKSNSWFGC

| SMILES | pIC50 |
| --- | --- |
| CC(C)Cn1cc(-c2ccc3c(c2)oc2ccc(S(=O)(=O)N[C@@H](C(=O)O)C(C)C)cc23)cn1 [Compound 173, (R)-2-(7-(1-isobutyl-1H-pyrazol-4-yl)dibenzo[b,d]furan-2-sulfonamido)-3-methylbutanoic acid] | 7.10 |
| Cc1nn(C)c(C)c1-c1ccc2c(c1)oc1ccc(S(=O)(=O)N[C@@H](C(=O)O)C(C)C)cc12 [Compound 174, (R)-3-methyl-2-(7-(1,3,5-trimethyl-1H-pyrazol-4-yl)dibenzo[b,d]furan-2-sulfonamido)butanoic acid] | 6.64 |
| CC(C)[C@@H](NS(=O)(=O)c1ccc2oc3cc(-c4cnn(Cc5ccccc5)c4)ccc3c2c1)C(=O)O [Compound 175, (R)-2-(7-(1-benzyl-1H-pyrazol-4-yl)dibenzo[b,d]furan-2-sulfonamido)-3-methylbutanoic acid] | 7.92 |
| Cc1nc(-c2ccccc2)sc1-c1ccc2c(c1)oc1ccc(S(=O)(=O)N[C@@H](C(=O)O)C(C)C)cc12 [Compound 176, (R)-3-methyl-2-(7-(4-methyl-2-phenylthiazol-5-yl)dibenzo[b,d]furan-2-sulfonamido)butanoic acid] | 7.01 |
| Cc1nc(-c2ccc(C(F)(F)F)cc2)sc1-c1ccc2c(c1)oc1ccc(S(=O)(=O)N[C@@H](C(=O)O)C(C)C)cc12 [Compound 177, (R)-3-methyl-2-(7-(4-methyl-2-(4-(trifluoromethyl)phenyl)thiazol-5-yl)dibenzo[b,d]furan-2-sulfonamido)butanoic acid] | 6.13 |
| CC(C)[C@H](NS(=O)(=O)c1ccc2c(c1)oc1ccc(-c3cnc(Cl)s3)cc12)C(=O)O [Compound 179, (S)-2-(8-(2-chlorothiazol-5-yl)dibenzo[b,d]furan-3-sulfonamido)-3-methylbutanoic acid] | > 8.82 |
| CC(C)[C@H](NS(=O)(=O)c1ccc2c(c1)oc1ccc(-c3csc(Cl)n3)cc12)C(=O)O [Compound 180, (S)-2-(8-(2-chlorothiazol-4-yl)dibenzo[b,d]furan-3-sulfonamido)-3-methylbutanoic acid] | > 8.82 |
| CC(C)[C@H](NS(=O)(=O)c1ccc2c(c1)oc1cc(-c3cnc(Cl)s3)ccc12)C(=O)O [Compound 181, (S)-2-(7-(2-chlorothiazol-5-yl)dibenzo[b,d]furan-3-sulfonamido)-3-methylbutanoic acid] | > 8.82 |
| CC(C)[C@H](NS(=O)(=O)c1ccc2c(c1)sc1cc(-c3ccc(Cl)o3)ccc12)C(=O)O [Compound 182, (S)-2-(7-(5-chlorofuran-2-yl)dibenzo[b,d]thiophene-3-sulfonamido)-3-methylbutanoic acid] | > 8.82 |
| CC(C)[C@H](NS(=O)(=O)c1ccc2c(c1)oc1cc(C(=N)NO)ccc12)C(=O)O [Compound 186, (S)-2-(7-(N-hydroxycarbamimidoyl)dibenzo[b,d]furan-3-sulfonamido)-3-methylbutanoic acid] | 8.72 |
| CC(C)[C@H](NS(=O)(=O)c1ccc2c(c1)oc1cc(-c3noc(C4CC4)n3)ccc12)C(=O)O [Compound 187, (S)-2-(7-(5-cyclopropyl-1,2,4-oxadiazol-3-yl)dibenzo[b,d]furan-3-sulfonamido)-3-methylbutanoic acid] | 8.26 |
| CC(C)[C@H](NS(=O)(=O)c1ccc2c(c1)oc1cc(-c3noc(-c4ccc(F)cc4)n3)ccc12)C(=O)O [Compound 188, (S)-2-(7-(5-(4-fluorophenyl)-1,2,4-oxadiazol-3-yl)dibenzo[b,d]furan-3-sulfonamido)-3-methylbutanoic acid] | 8.07 |
| CC(C)[C@@H](NS(=O)(=O)c1ccc2oc3cc(-c4noc(CC(C)(C)C)n4)ccc3c2c1)C(=O)O [Compound 189, (R)-3-methyl-2-(7-(5-neopentyl-1,2,4-oxadiazol-3-yl)dibenzo[b,d]furan-2-sulfonamido)butanoic acid] | 8.35 |
| CC(C)[C@@H](NS(=O)(=O)c1ccc2oc3cc(-c4noc(C5CCCC5)n4)ccc3c2c1)C(=O)O [Compound 190, (R)-2-(7-(5-cyclopentyl-1,2,4-oxadiazol-3-yl)dibenzo[b,d]furan-2-sulfonamido)-3-methylbutanoic acid] | 8.66 |
| CC(C)[C@@H](NS(=O)(=O)c1ccc2oc3cc(-c4noc(CC5CCCC5)n4)ccc3c2c1)C(=O)O [Compound 191, (R)-2-(7-(5-(cyclopentylmethyl)-1,2,4-oxadiazol-3-yl)dibenzo[b,d]furan-2-sulfonamido)-3-methylbutanoic acid] | 8.48 |
| CC(C)[C@@H](NS(=O)(=O)c1ccc2oc3cc(-c4noc(C5CCCCC5)n4)ccc3c2c1)C(=O)O [Compound 192, (R)-2-(7-(5-cyclohexyl-1,2,4-oxadiazol-3-yl)dibenzo[b,d]furan-2-sulfonamido)-3-methylbutanoic acid] | 8.14 |
| CC(C)[C@H](NS(=O)(=O)c1ccc2c(c1)sc1cc(-c3ccco3)ccc12)C(=O)O [Compound 193, (S)-2-(7-(furan-2-yl)dibenzo[b,d]thiophene-3-sulfonamido)-3-methylbutanoic acid] | > 8.82 |

| SMILES | pIC50 |
| --- | --- |
| CC(C)[C@H](NS(=O)(=O)c1ccc2c(c1)oc1ccc(-c3nc4ccccc4o3)cc12)C(=O)O [Compound 194, (S)-2-(8-(benzo[d]oxazol-2-yl)dibenzo[b,d]furan-3-sulfonamido)-3-methylbutanoic acid] | 8.34 |
| CC(C)[C@H](NS(=O)(=O)c1ccc2c(c1)oc1ccc(-c3ccc4oc5ccccc5c4c3)cc12)C(=O)O [Compound 195, (S)-2-(2,2′-bidibenzo[b,d]furan-7-sulfonamido)-3-methylbutanoic acid] | 8.14 |
| CCc1ccc(-c2ccc3oc4cc(S(=O)(=O)N[C@H](C(=O)O)C(C)C)ccc4c3c2)s1 [Compound 196, (S)-2-(8-(5-ethylthiophen-2-yl)dibenzo[b,d]furan-3-sulfonamido)-3-methylbutanoic acid] | > 8.82 |
| CCCc1ccc(-c2ccc3oc4cc(S(=O)(=O)N[C@H](C(=O)O)C(C)C)ccc4c3c2)s1 [Compound 197, (S)-3-methyl-2-(8-(5-propylthiophen-2-yl)dibenzo[b,d]furan-3-sulfonamido)butanoic acid] | > 8.82 |
| CC(C)[C@H](NS(=O)(=O)c1ccc2c(c1)oc1ccc(-c3ccc(C(C)(C)C)o3)cc12)C(=O)O [Compound 198, (S)-2-(8-(5-tert-butylfuran-2-yl)dibenzo[b,d]furan-3-sulfonamido)-3-methylbutanoic acid] | 8.25 |
| Cc1nc(-c2ccc(-c3ccc4oc5cc(S(=O)(=O)N[C@H](C(=O)O)C(C)C)ccc5c4c3)s2)no1 [Compound 199, (S)-3-methyl-2-(8-(5-(5-methyl-1,2,4-oxadiazol-3-yl)thiophen-2-yl)dibenzo[b,d]furan-3-sulfonamido)butanoic acid] | > 8.82 |
| CC(C)[C@H](NS(=O)(=O)c1ccc2c(c1)oc1ccc(-c3nc(C(F)(F)F)c(Cl)s3)cc12)C(=O)O [Compound 200, (S)-2-(8-(5-chloro-4-(trifluoromethyl)thiazol-2-yl)dibenzo[b,d]furan-3-sulfonamido)-3-methylbutanoic acid] | > 8.82 |
| Cc1nc(C)c(-c2ccc3oc4cc(S(=O)(=O)N[C@H](C(=O)O)C(C)C)ccc4c3c2)s1 [Compound 201, (S)-2-(8-(2,4-dimethylthiazol-5-yl)dibenzo[b,d]furan-3-sulfonamido)-3-methylbutanoic acid] | > 8.82 |
| CC(C)[C@H](NS(=O)(=O)c1ccc2c(c1)oc1ccc(-c3nc4ccc(Cl)cc4s3)cc12)C(=O)O [Compound 203, (S)-2-(8-(6-chlorobenzo[d]thiazol-2-yl)dibenzo[b,d]furan-3-sulfonamido)-3-methylbutanoic acid] | 8.39 |
| Cc1nc(CC(C)C)sc1-c1ccc2oc3cc(S(=O)(=O)N[C@H](C(=O)O)C(C)C)ccc3c2c1 [Compound 204, (S)-2-(8-(2-isobutyl-4-methylthiazol-5-yl)dibenzo[b,d]furan-3-sulfonamido)-3-methylbutanoic acid] | 7.89 |
| CC(C)[C@H](NS(=O)(=O)c1ccc2c(c1)oc1ccc(-c3c(C(F)(F)F)n[nH]c3-c3ccccc3)cc12)C(=O)O [Compound 206, (S)-3-methyl-2-(8-(5-phenyl-3-(trifluoromethyl)-1H-pyrazol-4-yl)dibenzo[b,d]furan-3-sulfonamido)butanoic acid] | 6.96 |
| CC(C)[C@H](NS(=O)(=O)c1ccc2c(c1)oc1ccc(-c3ccc(-c4nnn[nH]4)s3)cc12)C(=O)O [Compound 207, (S)-2-(8-(5-(1H-tetrazol-5-yl)thiophen-2-yl)dibenzo[b,d]furan-3-sulfonamido)-3-methylbutanoic acid] | 8.08 |
| COc1ccc2nc(-c3ccc4oc5cc(S(=O)(=O)N[C@H](C(=O)O)C(C)C)ccc5c4c3)sc2c1 [Compound 208, (S)-2-(8-(6-methoxybenzo[d]thiazol-2-yl)dibenzo[b,d]furan-3-sulfonamido)-3-methylbutanoic acid] | 8.57 |
| CC(C)[C@H](NS(=O)(=O)c1ccc2c(c1)oc1ccc(-c3nc4ccc(F)cc4s3)cc12)C(=O)O [Compound 209, (S)-2-(8-(6-fluorobenzo[d]thiazol-2-yl)dibenzo[b,d]furan-3-sulfonamido)-3-methylbutanoic acid] | > 8.82 |
| Cc1ccc2nc(-c3ccc4oc5cc(S(=O)(=O)N[C@H](C(=O)O)C(C)C)ccc5c4c3)sc2c1 [Compound 210, (S)-3-methyl-2-(8-(6-methylbenzo[d]thiazol-2-yl)dibenzo[b,d]furan-3-sulfonamido)butanoic acid] | 7.92 |
| CC(C)[C@H](NS(=O)(=O)c1ccc2c(c1)oc1ccc(-c3ccc(-c4ccno4)s3)cc12)C(=O)O [Compound 211, (S)-2-(8-(5-(isoxazol-5-yl)thiophen-2-yl)dibenzo[b,d]furan-3-sulfonamido)-3-methylbutanoic acid] | 6.53 |
| CC(C)[C@H](NS(=O)(=O)c1ccc2c(c1)oc1ccc(-c3ncc(CN4CCN(C)CC4)s3)cc12)C(=O)O [Compound 212, (S)-3-methyl-2-(8-(5-((4-methylpiperazin-1-yl)methyl)thiazol-2-yl)dibenzo[b,d]furan-3-sulfonamido)butanoic acid] | 7.07 |
